Reference: US8680052B1, “Methods of treating, reducing the incidence of, and/or preventing ischemic events” (The Medicines Company, priority 2013, dated 2014)

System: platelets
Assay: Example 4: light transmission aggregometry (LTA) induced by 5 and 20 μM ADP
Assay type: in vivo, human
Protocol: The study involved 12 patients who met the criteria of being 18-75 years of age, having coronary artery disease (CAD) documented by a previous MI or coronary revascularization, and taking 81 mg of aspirin daily. […] Prohibited concomitant medications included strong and potent CYP3A inhibitors, simvastatin and lovastatin at doses more than 40 mg/day, omeprazole or esomeprazole, and digoxin. Use of non-steroidal anti-inflammatory agents was discouraged during study participation but not prohibited.
Each patient was administered a 30 μg/kg bolus of cangrelor followed immediately by a 2 hr infusion at a rate of 4.0 μg/kg/min. A loading dose of ticagrelor (180 mg) was given after 0.5 hr or 1.25 hr (n=6 for each). Blood for pharmacodynamic platelet function studies was taken after 0.5 or 1.25 hr (corresponding to the time of ticagrelor load, n=6 for each), and then at 1.75, 2, 2.25, 2.5, 2.75, 3, 4, and 5.25 hr. Patients were assigned randomly to receive either 6 (n=6) or 7 (n=6) doses of ticagrelor to be taken every 12 hours following the discontinuation of the infusion of cangrelor. On study day 5, each patient was administered a 30 μg/kg bolus of cangrelor followed immediately by a 2 hr infusion at a rate of 4.0 μg/kg/min. Blood for pharmacodynamic assessment was taken after 1 and 2 hr. Adverse events were queried throughout study participation that ended with a telephone interview performed on study day 10-12.
Pharmacodynamic assessment included light transmission aggregometry (LTA), VerifyNow® P2Y12 assay, vasodilator-stimulated phosphoprotein (VASP) index, and platelet activation measured with the use of flow cytometry. Assessment of LTA, VerifyNow®, and platelet activation with the use of flow cytometry was performed within 30 min of blood being taken. In the case of flow cytometry, samples were processed to fixation and then batched for analysis. For VASP, index samples were batched and processed as recommended by the vendor within 2 h of blood being taken. This approach limited the time from fixation of VASP index to flow analysis to less than 1 h.
LTA induced by 5 μM and 20 μM adenosine diphosphate (ADP) was quantified ex vivo (i.e. in non-adjusted platelet rich plasma). Platelet-poor plasma was set as 100% aggregation, and both maximal (peak) and terminal (at 300 s) aggregation were measured with a PAP4 aggregometer (BioData, Horsham, Pa.). VerifyNow® P2Y12 assay (Accumetrics Inc, San Diego, Calif.) that measures the effects of drugs on the P2Y12 receptor by activating platelets with prostaglandin El in addition to ADP was used in accordance with the instructions provided by the manufacturer. Platelet reactivity was expressed in P2Y12 reaction units (PRU). Activation of platelets was identified with the use of flow cytometry as previously described.^17. And to determine the VASP index, a commercially available kit (Diagnostica Stago, Inc, Parsippany NJ) was used. ^17 Schneider D J, Sobel B E. Streamlining the design of promising clinical trials: in-vitro testing of antithrombotic regimens and multiple agonists of platelet activation. Coron Artery Dis. 2009; 20:175-8.

[1] = Study Day 1, 1.75 h, Ticagrelor at 0.5 hr
[2] = Study Day 1, 1.75 h, Ticagrelor at 1.25 hr
[3] = Study Day 1, 2.0 h, Ticagrelor at 0.5 hr
[4] = Study Day 1, 2.0 h, Ticagrelor at 1.25 hr
[5] = Study Day 1, reference 0.5/1.25 h, All
[6] = Study Day 1, reference 0.5/1.25 h, Ticagrelor at 0.5 hr
[7] = Study Day 1, reference 0.5/1.25 h, Ticagrelor at 1.25 hr
[8] = Study Day 5, 1.0 h, Ticagrelor 6 doses
[9] = Study Day 5, 1.0 h, Ticagrelor 7 doses
[10] = Study Day 5, 2.0 h, Ticagrelor 6 doses
[11] = Study Day 5, 2.0 h, Ticagrelor 7 doses

CSCCNc1nc(SCCC(F)(F)F)nc2c1ncn2[C@@H]1O[C@H](COP(=O)(O)OP(=O)(O)C(Cl)(Cl)P(=O)(O)O)[C@@H](O)[C@H]1O [Cangrelor, cangrelor]
IPA, 5 μM ADP, LTA (Study Day 1, 1.75 h, All): 92 ± 5% | IPA, 20 μM ADP, LTA (Study Day 1, 1.75 h, All): 97 ± 2% | PR, 5 μM ADP, LTA (Study Day 1, 1.75 h, All): 3.4 ± 2.2% | PR, 20 μM ADP, LTA (Study Day 1, 1.75 h, All): 2.2 ± 1.4% | IPA, 5 μM ADP, LTA [1]: 92 ± 5% | IPA, 20 μM ADP, LTA [1]: 97 ± 2% | PR, 5 μM ADP, LTA [1]: 4.2 ± 2.4% | PR, 20 μM ADP, LTA [1]: 2.3 ± 1.0% | IPA, 5 μM ADP, LTA [2]: 93 ± 6% | IPA, 20 μM ADP, LTA [2]: 97 ± 3% | PR, 5 μM ADP, LTA [2]: 2.7 ± 1.8% | PR, 20 μM ADP, LTA [2]: 2 ± 1.8% | IPA, 5 μM ADP, LTA (Study Day 1, 2.0 h, All): 92 ± 3% | IPA, 20 μM ADP, LTA (Study Day 1, 2.0 h, All): 97 ± 3% | PR, 5 μM ADP, LTA (Study Day 1, 2.0 h, All): 4.1 ± 2% | PR, 20 μM ADP, LTA (Study Day 1, 2.0 h, All): 2.3 ± 2.2% | IPA, 5 μM ADP, LTA [3]: 91 ± 3% | IPA, 20 μM ADP, LTA [3]: 95 ± 2% | PR, 5 μM ADP, LTA [3]: 4.8 ± 1.9% | PR, 20 μM ADP, LTA [3]: 3.5 ± 1.9% | IPA, 5 μM ADP, LTA [4]: 93 ± 3% | IPA, 20 μM ADP, LTA [4]: 98 ± 3% | PR, 5 μM ADP, LTA [4]: 3.3 ± 2% | PR, 20 μM ADP, LTA [4]: 1.2 ± 1.9% | IPA, 5 μM ADP, LTA [5]: 93 ± 3% | IPA, 20 μM ADP, LTA [5]: 98 ± 2% | PR, 5 μM ADP, LTA [5]: 3.6 ± 1.8% | PR, 20 μM ADP, LTA [5]: 1.7 ± 1.7% | IPA, 5 μM ADP, LTA [6]: 92 ± 4% | IPA, 20 μM ADP, LTA [6]: 97 ± 2% | PR, 5 μM ADP, LTA [6]: 4.2 ± 2.1% | PR, 20 μM ADP, LTA [6]: 2 ± 1.5% | IPA, 5 μM ADP, LTA [7]: 93 ± 2% | IPA, 20 μM ADP, LTA [7]: 98 ± 3% | PR, 5 μM ADP, LTA [7]: 3 ± 1.4% | PR, 20 μM ADP, LTA [7]: 1.3 ± 2.0% | IPA, 5 μM ADP, LTA (Study Day 5, 1.0 h, All): 96 ± 3% | IPA, 20 μM ADP, LTA (Study Day 5, 1.0 h, All): 98 ± 2% | PR, 5 μM ADP, LTA (Study Day 5, 1.0 h, All): 2.1 ± 1.7% | PR, 20 μM ADP, LTA (Study Day 5, 1.0 h, All): 1.5 ± 1.5% | IPA, 5 μM ADP, LTA [8]: 96 ± 4% | IPA, 20 μM ADP, LTA [8]: 98 ± 2% | PR, 5 μM ADP, LTA [8]: 1.5 ± 1.6% | PR, 20 μM ADP, LTA [8]: 1.5 ± 1.6% | IPA, 5 μM ADP, LTA [9]: 96 ± 3% | IPA, 20 μM ADP, LTA [9]: 98 ± 2% | PR, 5 μM ADP, LTA [9]: 2.7 ± 1.6% | PR, 20 μM ADP, LTA [9]: 1.5 ± 1.5% | IPA, 5 μM ADP, LTA (Study Day 5, 2.0 h, All): 96 ± 4% | IPA, 20 μM ADP, LTA (Study Day 5, 2.0 h, All): 98 ± 2% | PR, 5 μM ADP, LTA (Study Day 5, 2.0 h, All): 2.2 ± 2.2% | PR, 20 μM ADP, LTA (Study Day 5, 2.0 h, All): 1.3 ± 1.6% | IPA, 5 μM ADP, LTA [10]: 97 ± 3% | IPA, 20 μM ADP, LTA [10]: 98 ± 1% | PR, 5 μM ADP, LTA [10]: 1.5 ± 1.5% | PR, 20 μM ADP, LTA [10]: 1.2 ± 1.5% | IPA, 5 μM ADP, LTA [11]: 95 ± 5% | IPA, 20 μM ADP, LTA [11]: 98 ± 3% | PR, 5 μM ADP, LTA [11]: 2.8 ± 2.7% | PR, 20 μM ADP, LTA [11]: 1.5 ± 1.9% | residual reactivity, maximal (combined overall population, 0.5 h after cangrelor was stopped, ticagrelor loaded during infusion): 19% | residual reactivity (combined overall population, end of observation period (5.25 h)): < 5%
